This test concerns the target T1, F508delCFTR (Homo sapiens, UniProt P13569, DEL508-508).
T1 construct: expressed in transfected cells; host or cells: CFBE41o- human lung derived epithelial cells (CFBE41o-F508delCFTR-HRP), doxycycline-inducible
Put plainly: Cell Surface Expression-Horse Radish Peroxidase (CSE-HRP) Assay.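 For EC50 (with co-corrector): co-corrector chromenyl benzoic acid corrector at 2 or 3 µM.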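 For Maximum % activity (without co-corrector): % of on-plate positive control chromenyl benzoic acid corrector at 2 or 3 µM.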 It counts as cell-based. The settings on record: for Maximum % activity (with co-corrector) / Emax: maximum at any tested concentration; for Emax: read-out: Maximum % activity (without co-corrector). An outline of the steps:
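Corrector compounds were given as 8-point 3-fold series from 20 or 30 μM, with or without a 2 μM co-corrector, for 18-24 h at 33 °C. Surface HRP was read by luminol luminescence as % of positive control; variable-Hill-slope sigmoidal fitting gave EC50 from triplicate plates.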

Where [1] appears, read: test compound with co-corrector.
[2] abbreviates: test compound with co-corrector, read-out: EC50 (with co-corrector).
The mark [3] stands for this setting: test compound without co-corrector.
[4] abbreviates: test compound without co-corrector, read-out: EC50 (without co-corrector).
[5] abbreviates: test compound alone, without co-corrector, read-out: EC50 (without co-corrector).
The mark [6] stands for this setting: with co-corrector, read-out: EC50 (with co-corrector).

Structures are written as SMILES. Like-named read-outs stand apart in the source and are kept apart here. A value given as a limit tells only on which side of the number the result lay.

T1 sequence (P13569 with tags, fused parts or gaps DEL508-508): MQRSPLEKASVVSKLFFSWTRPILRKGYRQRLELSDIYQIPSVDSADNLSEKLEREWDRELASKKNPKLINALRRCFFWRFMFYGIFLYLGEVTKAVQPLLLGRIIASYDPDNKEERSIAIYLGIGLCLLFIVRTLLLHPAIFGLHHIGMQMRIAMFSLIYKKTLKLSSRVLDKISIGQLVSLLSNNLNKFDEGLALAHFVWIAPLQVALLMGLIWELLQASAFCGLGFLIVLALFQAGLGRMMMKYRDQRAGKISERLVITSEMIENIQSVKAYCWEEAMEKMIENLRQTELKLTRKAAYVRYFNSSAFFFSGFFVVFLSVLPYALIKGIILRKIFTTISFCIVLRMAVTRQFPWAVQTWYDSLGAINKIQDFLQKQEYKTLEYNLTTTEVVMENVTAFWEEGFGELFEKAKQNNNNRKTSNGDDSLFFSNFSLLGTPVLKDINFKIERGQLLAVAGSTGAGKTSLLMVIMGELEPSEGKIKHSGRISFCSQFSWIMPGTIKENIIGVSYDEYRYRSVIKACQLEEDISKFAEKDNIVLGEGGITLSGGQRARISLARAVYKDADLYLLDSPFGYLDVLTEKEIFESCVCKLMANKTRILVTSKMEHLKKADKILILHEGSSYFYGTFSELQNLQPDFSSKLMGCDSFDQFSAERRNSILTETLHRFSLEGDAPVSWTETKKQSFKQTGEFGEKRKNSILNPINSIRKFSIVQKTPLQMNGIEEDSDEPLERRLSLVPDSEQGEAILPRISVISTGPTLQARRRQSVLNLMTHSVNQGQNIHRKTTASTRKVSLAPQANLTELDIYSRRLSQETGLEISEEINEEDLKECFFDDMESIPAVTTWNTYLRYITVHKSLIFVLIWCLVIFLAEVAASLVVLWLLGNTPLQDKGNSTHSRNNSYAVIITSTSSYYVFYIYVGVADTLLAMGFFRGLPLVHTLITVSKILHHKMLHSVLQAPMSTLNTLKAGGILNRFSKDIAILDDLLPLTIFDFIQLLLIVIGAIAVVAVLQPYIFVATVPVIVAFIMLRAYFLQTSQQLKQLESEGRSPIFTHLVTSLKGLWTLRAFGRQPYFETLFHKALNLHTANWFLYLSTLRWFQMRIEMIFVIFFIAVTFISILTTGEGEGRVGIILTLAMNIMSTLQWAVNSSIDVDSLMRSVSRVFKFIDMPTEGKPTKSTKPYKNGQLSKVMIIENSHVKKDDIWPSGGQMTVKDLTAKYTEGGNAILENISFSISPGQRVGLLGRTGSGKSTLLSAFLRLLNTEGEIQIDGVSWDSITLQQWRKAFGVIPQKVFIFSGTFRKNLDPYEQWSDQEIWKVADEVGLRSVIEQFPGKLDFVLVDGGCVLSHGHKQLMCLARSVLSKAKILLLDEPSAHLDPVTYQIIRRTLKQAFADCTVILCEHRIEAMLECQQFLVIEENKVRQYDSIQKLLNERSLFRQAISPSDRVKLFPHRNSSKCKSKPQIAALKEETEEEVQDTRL

Broadly, the EC50 is the concentration at which the effect is half-maximal. Consider `CC(C)COc1ncc(N2CCCC2)cc1C1(C(=O)NS(=O)(=O)c2cccc3[nH]ccc23)CC1` [Example GI-70, N-(1H-indole-4-sulfonyl)-1-[2-(2-methylpropoxy)-5-(pyrrolidin-1-yl)pyridin-3-yl]cyclopropane-1-carboxamide], for which the “Maximum % activity (with co-corrector)” value under setting [1] is reported as “+++ (≥350)”. The EC50 under setting [2] was < 3 µM and the EC50 under setting [4] was < 3 µM. Further, under setting [3], the Emax is > 150%.
As for `COc1cnc(OCC2CC2)c(C2(C(=O)NS(=O)(=O)c3cccc4[nH]ccc34)CC2)c1` [Example GI-88, 1-[2-(cyclopropylmethoxy)-5-methoxypyridin-3-yl]-N-(1H-indole-4-sulfonyl)cyclopropane-1-carboxamide], under setting [1], the “Maximum % activity (with co-corrector)” value was “+++ (≥350)”. In addition, the EC50 was < 3 µM under setting [2] and < 3 µM under setting [4]. The Emax under setting [3] was > 150%.
Consider `Cc1cnc(OCC2CC2)c(C2(C(=O)NS(=O)(=O)c3cccc4nc(C)ccc34)CC2)c1` [Example GI-101, 1-[2-(cyclopropylmethoxy)-5-methylpyridin-3-yl]-N-(2-methylquinoline-5-sulfonyl)cyclopropane-1-carboxamide], for which the “Maximum % activity (with co-corrector)” value under setting [1] was “+++ (≥350)”. The EC50 is, setting by setting: under setting [2], < 3 µM; under setting [4], 3 to 10 µM. The Emax under setting [3] is > 150%.
Regarding `COc1cccc(C2(C(=O)NS(=O)(=O)c3cccc4ccccc34)CC2)c1` [II-1], the EC50 under setting [5] fell in the range of 3 to 10 µM and the EC50 under setting [6] fell in the range of 3 to 10 µM. Further, the “Maximum % activity (with co-corrector)” value (with co-corrector) was “+++ (≥350)”. Moreover, the Emax (without co-corrector) was > 150%.
As to `O=C(NS(=O)(=O)CC(F)(F)F)C1(c2ccc(Cl)cc2Cl)CC1` [Example III-106, 1-(2,4-dichlorophenyl)-N-(2,2,2-trifluoroethanesulfonyl)cyclopropane-1-carboxamide], the EC50 reads like this: under setting [5], > 10 µM; under setting [6], > 10 µM. The “Maximum % activity (with co-corrector)” value (with co-corrector) is given as “+ (<150)”. In addition, the Emax (without co-corrector) was < 50%.
Turning to `CCc1ccc(OC(F)F)c(C2(C(=O)NS(=O)(=O)c3cccc4ncccc34)CC2)c1` [II-98], the EC50 is, setting by setting: under setting [5], < 3 µM; under setting [6], < 3 µM. The “Maximum % activity (with co-corrector)” value (with co-corrector) was “+++ (≥350)”. In addition, the Emax (without co-corrector) is > 150%.
For `COc1cc(C2CCC2)cc(OC)c1C1(C(=O)NS(=O)(=O)c2cccc3[nH]ccc23)CC1` [Example I-86, 1-(4-cyclobutyl-2,6-dimethoxyphenyl)-N-(1H-indole-4-sulfonyl)cyclopropane-1-carboxamide], the EC50 reads like this: under setting [5], < 3 µM; under setting [6], < 3 µM. For the same molecule, the “Maximum % activity (with co-corrector)” value (with co-corrector) was “+++ (≥350)”. In addition, the Emax (without co-corrector) is > 150%.
`COCCOc1ncc(C2CCC2)cc1C1(C(=O)NS(=O)(=O)c2cccc3[nH]ccc23)CC1` [Example GI-99, 1-[5-cyclobutyl-2-(2-methoxyethoxy)pyridin-3-yl]-N-(1H-indole-4-sulfonyl)cyclopropane-1-carboxamide]: the “Maximum % activity (with co-corrector)” value under setting [1] is reported as “+++ (≥350)”. Further, the EC50 was < 3 µM under setting [2] and < 3 µM under setting [4]. Moreover, under setting [3], the Emax is > 150%.
As to `COc1cccc(C)c1C1(C(=O)NS(=O)(=O)c2cccc3nc(C)ccc23)CC1` [II-50], the EC50 reads like this: under setting [5], 3 to 10 µM; under setting [6], < 3 µM. Moreover, the “Maximum % activity (with co-corrector)” value (with co-corrector) is recorded as “+++ (≥350)”. The Emax (without co-corrector) is > 150%.
On the same counts, the results for `COc1ncc(C(F)(F)F)cc1C1(C(=O)NS(=O)(=O)c2cccc3[nH]ncc23)CC1` [Example III-98, N-(1H-indazole-4-sulfonyl)-1-[2-methoxy-5-(trifluoromethyl)pyridin-3-yl]cyclopropane-1-carboxamide] are 3 to 10 µM, 3 to 10 µM, “+++ (≥350)” and > 150%.

Source of the values: US10829473B2, “Modulators of the cystic fibrosis transmembrane conductance regulator protein and methods of use” (AbbVie Overseas S.Á.R.L., priority 2017, dated 2020).
